Source: patent US9351955B2, “Compounds and pharmaceutical compositions thereof for the treatment of cystic fibrosis” (Galapagos NV, priority 2013, dated 2016)

Tests used:
CFTR-R117H = target: T1, CFTR-R117H (Homo sapiens, UniProt P13569, R117H); assay: YFP-halide influx assay for the CFTR-R117H; format: cell-based; conditions: CFTR-R117H mutant; read-out: EC50 measured by YFP-halide influx assay for the CFTR-R117H
T1 construct: expressed in transfected cells
In short: (§1)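 HEK293 cells reverse-transfected with mutant CFTR and halide-sensitive YFP H148Q/I152L/F47L reporter, then expressed 24 h at 37 °C, 5% CO2. Fluorescence quenching recorded for 7 s after I^− injection; response expressed as 1−F/F0, with EC50 derived from response versus compound concentration.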

CFTR ΔF508 mutant [1] = target: T2, CFTR ΔF508 mutant (Homo sapiens, UniProt P13569, DEL508-508); assay: YFP-halide influx assay for the CFTR-ΔF508 mutation (384 well, CFBE41o- cells, FDSS/μCell); format: cell-based; conditions: forskolin 10.67 μM, fluorescence after 36 seconds, read-out: EC50 measured by YFP-halide influx assay for the CFTR-ΔF508
T2 construct: expressed in transfected cells; host or cells: CFBE41o- (adenoviral transduction)
T2 sequence (P13569 with tags, fused parts or gaps DEL508-508): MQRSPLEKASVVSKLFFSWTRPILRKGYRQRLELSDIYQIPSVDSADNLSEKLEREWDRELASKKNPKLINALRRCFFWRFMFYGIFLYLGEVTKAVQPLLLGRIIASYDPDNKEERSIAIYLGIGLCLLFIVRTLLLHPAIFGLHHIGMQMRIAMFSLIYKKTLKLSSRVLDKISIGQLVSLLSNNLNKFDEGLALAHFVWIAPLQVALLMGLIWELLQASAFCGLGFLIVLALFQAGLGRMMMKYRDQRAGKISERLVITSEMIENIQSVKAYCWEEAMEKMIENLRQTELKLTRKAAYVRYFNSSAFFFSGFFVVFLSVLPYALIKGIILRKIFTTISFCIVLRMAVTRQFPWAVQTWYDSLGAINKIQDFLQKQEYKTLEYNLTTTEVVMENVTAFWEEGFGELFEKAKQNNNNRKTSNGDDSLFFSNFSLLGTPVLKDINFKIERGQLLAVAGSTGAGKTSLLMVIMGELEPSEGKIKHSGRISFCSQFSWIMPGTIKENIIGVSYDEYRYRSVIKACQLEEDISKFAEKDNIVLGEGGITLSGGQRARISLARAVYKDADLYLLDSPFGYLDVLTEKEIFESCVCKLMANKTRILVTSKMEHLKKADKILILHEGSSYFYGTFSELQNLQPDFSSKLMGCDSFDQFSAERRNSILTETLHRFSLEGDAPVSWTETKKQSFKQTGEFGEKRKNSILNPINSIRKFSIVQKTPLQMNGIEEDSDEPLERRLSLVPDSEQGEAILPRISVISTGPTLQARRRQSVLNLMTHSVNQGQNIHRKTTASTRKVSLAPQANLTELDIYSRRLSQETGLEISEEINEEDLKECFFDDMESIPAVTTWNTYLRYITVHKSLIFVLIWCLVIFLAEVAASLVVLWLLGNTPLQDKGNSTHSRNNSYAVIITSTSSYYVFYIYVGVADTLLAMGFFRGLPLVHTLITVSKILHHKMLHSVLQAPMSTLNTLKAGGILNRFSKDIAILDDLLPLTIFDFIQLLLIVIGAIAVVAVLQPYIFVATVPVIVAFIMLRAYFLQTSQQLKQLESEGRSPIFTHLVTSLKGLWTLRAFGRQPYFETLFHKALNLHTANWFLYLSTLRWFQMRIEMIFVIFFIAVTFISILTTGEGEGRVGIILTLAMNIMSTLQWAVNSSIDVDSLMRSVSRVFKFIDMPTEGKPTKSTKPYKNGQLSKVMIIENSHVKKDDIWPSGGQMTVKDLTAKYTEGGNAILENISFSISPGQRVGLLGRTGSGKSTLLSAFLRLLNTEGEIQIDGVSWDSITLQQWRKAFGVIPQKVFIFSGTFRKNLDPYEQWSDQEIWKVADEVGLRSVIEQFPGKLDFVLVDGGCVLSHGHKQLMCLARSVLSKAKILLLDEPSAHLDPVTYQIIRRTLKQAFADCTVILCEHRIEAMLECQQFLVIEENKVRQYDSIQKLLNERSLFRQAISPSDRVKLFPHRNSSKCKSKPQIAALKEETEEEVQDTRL
In short: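 CFBE41o- cells were adenovirally transduced with ΔF508 CFTR and the YFP H148Q/I152L reporter. Cells were then held 24 h at 27 °C or treated 24 h at 37 °C with a CFTR modulator. Iodide-induced quench was recorded for 2 min, and EC50 was derived from 1−F/F0 at 36 s against compound concentration.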

CFTR G551D mutant = target: T3, CFTR G551D mutant (Homo sapiens, UniProt P13569, G551D); assay: YFP-halide influx assay for the CFTR-G551D mutation (HEK293 cells); format: cell-based; conditions: HEK293 cells expressing CFTR G551D and YFP reporter; forskolin 10.67 μM; read-out: EC50 measured by YFP-halide influx assay for the CFTR-G551D
T3 construct: expressed in transfected cells; host or cells: HEK293 (reverse transfection with plasmids)
T3 sequence (P13569 whole entry G551D): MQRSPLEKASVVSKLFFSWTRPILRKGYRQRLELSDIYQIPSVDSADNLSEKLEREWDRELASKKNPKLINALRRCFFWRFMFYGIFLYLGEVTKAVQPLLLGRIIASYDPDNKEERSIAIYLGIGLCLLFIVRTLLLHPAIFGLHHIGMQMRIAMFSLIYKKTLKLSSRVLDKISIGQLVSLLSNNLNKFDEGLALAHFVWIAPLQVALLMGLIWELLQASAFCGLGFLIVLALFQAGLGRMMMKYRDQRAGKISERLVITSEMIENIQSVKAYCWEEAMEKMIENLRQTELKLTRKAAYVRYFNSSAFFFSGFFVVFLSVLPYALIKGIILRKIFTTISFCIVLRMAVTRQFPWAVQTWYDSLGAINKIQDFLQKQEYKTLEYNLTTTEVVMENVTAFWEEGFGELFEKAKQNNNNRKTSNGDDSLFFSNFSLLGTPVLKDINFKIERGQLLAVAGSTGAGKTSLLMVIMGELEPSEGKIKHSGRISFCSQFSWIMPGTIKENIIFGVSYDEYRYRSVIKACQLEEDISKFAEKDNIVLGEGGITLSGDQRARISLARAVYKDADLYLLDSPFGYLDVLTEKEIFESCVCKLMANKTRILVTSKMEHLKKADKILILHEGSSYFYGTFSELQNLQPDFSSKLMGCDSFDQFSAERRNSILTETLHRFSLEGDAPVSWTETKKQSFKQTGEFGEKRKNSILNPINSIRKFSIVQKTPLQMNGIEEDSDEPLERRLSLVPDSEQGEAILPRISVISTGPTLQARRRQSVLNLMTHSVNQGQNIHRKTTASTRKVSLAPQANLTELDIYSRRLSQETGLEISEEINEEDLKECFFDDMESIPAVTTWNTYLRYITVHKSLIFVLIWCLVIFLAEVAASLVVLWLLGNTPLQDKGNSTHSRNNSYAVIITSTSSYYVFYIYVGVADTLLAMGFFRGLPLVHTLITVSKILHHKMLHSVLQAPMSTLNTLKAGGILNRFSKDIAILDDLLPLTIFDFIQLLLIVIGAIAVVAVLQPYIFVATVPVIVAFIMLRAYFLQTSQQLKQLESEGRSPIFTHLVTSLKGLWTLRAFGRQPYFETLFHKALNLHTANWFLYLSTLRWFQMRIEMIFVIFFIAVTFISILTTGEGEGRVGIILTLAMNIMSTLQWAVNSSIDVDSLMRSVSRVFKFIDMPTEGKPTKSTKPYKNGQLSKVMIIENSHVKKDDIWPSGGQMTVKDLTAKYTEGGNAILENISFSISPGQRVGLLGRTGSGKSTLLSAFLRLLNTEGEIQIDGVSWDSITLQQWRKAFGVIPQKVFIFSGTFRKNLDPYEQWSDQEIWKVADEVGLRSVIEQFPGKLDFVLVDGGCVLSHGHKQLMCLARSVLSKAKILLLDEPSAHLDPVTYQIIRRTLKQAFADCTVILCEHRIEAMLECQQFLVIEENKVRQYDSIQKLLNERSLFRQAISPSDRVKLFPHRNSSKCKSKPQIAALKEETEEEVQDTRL
In short: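 HEK293 cells reverse-transfected with CFTR G551D and halide-sensitive YFP, expressed 24 h at 37 °C. Iodide-induced fluorescence quench recorded for 7 s after I^− injection; response as 1−F/F0, EC50 from concentration plot.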

CFTR-G178R = target: T4, CFTR-G178R (Homo sapiens, UniProt P13569, G178R); assay: YFP-halide influx assay for the CFTR-G178R; format: cell-based; conditions: read-out: EC50 measured by YFP-halide influx assay for the CFTR-G178R
T4 construct: expressed in transfected cells
T4 sequence (P13569 whole entry G178R): as the sequence (P13569 whole entry G551D) above, with G178R, D551G counted along it
In short: as §1

CFTR G551D = CFTR G551D (Homo sapiens, UniProt P13569, G551D); assay: TECC assay, FRT cells stably transfected with G551D CFTR; format: cell-based; conditions: high expression CFTR-G551D cells, several values in a cell = repeat determinations
Sequence of CFTR G551D (P13569 whole entry G551D): as the sequence (P13569 whole entry G551D) above
Protocol: 7.2.3. FRT-CFTR G551D Protocol
For G551D recordings, Fish Rat Thyroid (FRT) cells stably transfected with G551D CFTR (a low CFTR-G551D expressing cell line and a high expressing CFTR-G551D cell line from Rosalind Franklin University of medicine and science, Chicago, Ill.) are plated on Transwell supports (Costar 6.5 mm Diameter, […]). The cells are grown for 8-10 d under liquid-liquid interface conditions prior to electrophysiological readings. For electrophysiological recording, the FRT-G551D cells are mounted in the TECC heating plate for electrophysiological measurement and kept at 37° C. The epithelia are bathed in hepes buffered culturing medium without FBS on both the basolateral and apical sides. Apical amiloride is used to inhibit the endogenous ENaC currents while forkolin is applied on both apical and basolateral side to stimulate CFTR. After forskolin triggering, compounds are added on both sides to test their potential for increasing CFTR gating. Measurements are done during a 10 minute timeframe with recordings every 2 min. The increase in ISC is used as a measure for the increased CFTR activity, EC50 values can be generated by measuring impact of different concentrations of compound on ISC on the cells, for this purpose each transwell is treated with a different compound concentration. Inh-172, an inhibitor specific for CFTR, is used to test the specificity of the tested compounds.
When subjected to this protocol, the following EC50 are measured.

CFTR-G1349D = target: T5, CFTR-G1349D (Homo sapiens, UniProt P13569, G1349D); assay: YFP-halide influx assay for the CFTR-G1349D; format: cell-based; conditions: CFTR-G1349D mutant; read-out: EC50 measured by YFP-halide influx assay for the CFTR-G1349D
T5 construct: expressed in transfected cells
T5 sequence (P13569 whole entry G1349D): as the sequence (P13569 whole entry G551D) above, with D551G, G1349D counted along it
In short: as §1

CFTR-S549N = target: T6, CFTR-S549N (Homo sapiens, UniProt P13569, S549N); assay: YFP-halide influx assay for the CFTR-S549N; format: cell-based; conditions: CFTR-S549N mutant; read-out: EC50 measured by YFP-halide influx assay for the CFTR-S549N
T6 construct: expressed in transfected cells
T6 sequence (P13569 whole entry S549N): as the sequence (P13569 whole entry G551D) above, with S549N, D551G counted along it
In short: as §1

Lung distribution study = format: in vivo, Sprague-Dawley rats; conditions: male, Sprague-Dawley, rat, plasma, oral, 10 mg/kg, exposure values
Protocol: Sprague-Dawley rats (male, 5-6 weeks old) are obtained from Janvier (France). Rats are acclimatized for at least 5 days before treatment and are kept on a 12 h light/dark cycle. Temperature is maintained at approximately 22° C., and food and water are provided ad libitum. Two days before administration of the test compounds, rats may undergo surgery to place a catheter in the jugular vein under isoflurane anesthesia. After the surgery, rats are housed individually. Rats are deprived of food for at least 16 h before oral dosing and 6 h after. Water is provided ad libitum.
8.7.3. Lung Distribution Studies
Compounds are formulated in 0.5% methylcellulose and EtOH/PEG 200/Methylcellulose 0.5% (10/25/65 v/v/v) by the oral route. Test compounds are orally dosed as a single esophageal gavage at 10 mg/kg under a dosing volume of 5 mL/kg. Each group consists of 12 rats. At each time point, typically 1, 3, 6 and 24 h, animals are euthanized and blood and lung samples are collected. Whole blood samples are centrifuged at 1500 g for 10 min and the resulting plasma samples, along with the lung samples, are stored at −20° C. pending analysis.
8.7.4. Quantification of Compound Levels in Plasma and Lung Samples
Lung samples are milled in the presence of ceramic beads and proteins present in plasma and lung samples are precipitated with an organic solvent. Concentrations of each test compound are determined by an LC-MS/MS method in which the mass spectrometer is operated in positive or negative electrospray mode.
For each animal, the lung-to-plasma ratio is determined as the ratio between compound concentration in lung and in plasma. At each sampling time point, mean, standard error of the mean (sem) and coefficient of variation (CV %) are calculated using data from three animals.

CFTR ΔF508 mutant [2] = target: T2, CFTR ΔF508 mutant; assay: YFP-halide influx assay for the CFTR-ΔF508 mutation (96 well, CFBE41o- cells); format: cell-based; conditions: compounds of the invention, 96 well, forskolin 10.67 μM, read-out: EC50 measured by YFP-halide influx assay for the CFTR-ΔF508
In short: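 CFBE41o- cells were adenovirally transduced with CFTR ΔF508 and the halide-sensitive YFP H148Q/I152L. They were then corrected either at 27 °C for 24 h or with a CFTR modulator for 24 h at 37 °C. After iodide injection, YFP quenching over 7 s was expressed as 1−F/F0, and EC50 was derived from the concentration–response plot.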

T1 sequence (P13569 whole entry R117H): as the sequence (P13569 whole entry G551D) above, with R117H, D551G counted along it

Compound | EC50 (CFTR-R117H) [nM] | EC50 (CFTR ΔF508 mutant [1]) [nM] | EC50 (CFTR G551D mutant) [nM] | EC50 (CFTR-G178R) [nM] | EC50 (CFTR G551D) [nM] | EC50 (CFTR-G1349D) [nM] | EC50 (CFTR-S549N) [nM] | AUC(0-t) (Lung distribution study) [ng·h/mL] | EC50 (CFTR ΔF508 mutant [2]) [nM]
CC(C)(C)CC(O)C(=O)Nc1sc2c(c1C(N)=O)CC(C)(C)OC2(C)C (single isomer, unassigned) [Compound 110, 2-[[2-hydroxy-4,4-dimethyl-pentanoyl]amino]-5,5,7,7-tetramethyl-4H-thieno[2,3-c]pyran-3-carboxamide] | 49.9 | 0.66 | 209 | 22.5 | 193 | 142 | 261 | – | –
CCc1cc(C(=O)Nc2sc3c(c2C(N)=O)CC(C)(C)OC3(C)C)n[nH]1 [Compound 17, N-(3-carbamoyl-5,5,7,7-tetramethyl-5,7-dihydro-4H-thieno[2,3-c]pyran-2-yl)-5-ethyl-1H-pyrazole-3-carboxamide] | – | 10.3 | 193 | – | – | – | – | 290 | 15.5
CC1(C)Cc2c(sc(NC(=O)c3[nH]ncc3Cl)c2C(N)=O)C(C)(C)O1 [Compound 25, N-(3-carbamoyl-5,5,7,7-tetramethyl-5,7-dihydro-4H-thieno[2,3-c]pyran-2-yl)-4-chloro-1H-pyrazole-3-carboxamide] | – | 2.25 | 80.6 | – | 70 | – | – | 439 | 4.14
Cc1cn[nH]c1C(=O)Nc1sc2c(c1C(N)=O)CC(C)(C)OC2(C)C [Compound 35, N-(3-carbamoyl-5,5,7,7-tetramethyl-5,7-dihydro-4H-thieno[2,3-c]pyran-2-yl)-4-methyl-1H-pyrazole-3-carboxamide] | 180 | 2.44 | 183 | 44.1 | 43.7 | 118 | 120 | – | 3
CC1(C)Cc2c(sc(NC(=O)c3cnco3)c2C(N)=O)C(C)(C)O1 [Compound 136, N-(3-carbamoyl-5,5,7,7-tetramethyl-4H-thieno[2,3-c]pyran-2-yl)oxazole-5-carboxamide] | 807 | 81.5 | 2530 | 786 | 62500 | 1190 | 2610 | – | –
